In PubChem BioAssay (NCI):
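1) Cells in 96-well plates. 2) Compound, 48 h, 5 concentrations. 3) Linear interpolation between surrounding doses. 4) Unreached endpoint = highest concentration. TGI: concentration producing complete growth inhibition.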

Experiments:
Experiment in all cases: NCI-60 cell line screen, 48 h
[1] = tested on: HCC-2998 colon
[2] = tested on: OVCAR-5 ovarian
[3] = tested on: IGROV1 ovarian
[4] = tested on: HOP-92 NSCLC
[5] = tested on: OVCAR-8 ovarian
[6] = tested on: MDA-MB-435
[7] = tested on: MDA-MB-231 breast
[8] = tested on: PC-3 prostate
[9] = tested on: A498 renal
[10] = tested on: RXF 393 renal
[11] = tested on: SK-MEL-28 melanoma
[12] = tested on: MALME-3M melanoma
[13] = tested on: MDA-N
[14] = tested on: CAKI-1 renal
[15] = tested on: SF-295 CNS
[16] = tested on: HCT-116 colon
[17] = tested on: HOP-62 NSCLC
[18] = tested on: HT29 colon
[19] = tested on: SF-539 CNS
[20] = tested on: TK-10 renal
[21] = tested on: NCI-H460 lung
[22] = tested on: SN12C renal
[23] = tested on: NCI-H522 lung
[24] = tested on: BT-549 breast
[25] = tested on: UO-31 renal
[26] = tested on: SR leukemia
[27] = tested on: HL-60(TB) leukemia
[28] = tested on: T-47D breast
[29] = tested on: M14 melanoma
[30] = tested on: OVCAR-4 ovarian
[31] = tested on: EKVX NSCLC
[32] = tested on: MCF7 breast
[33] = tested on: DU-145 prostate
[34] = tested on: COLO 205 colon
[35] = tested on: HS 578T breast
[36] = tested on: SNB-75 CNS
[37] = tested on: KM12 colon
[38] = tested on: K-562 leukemia
[39] = tested on: SW-620 colon
[40] = tested on: ACHN renal
[41] = tested on: NCI-H226 lung
[42] = tested on: SK-MEL-5 melanoma
[43] = tested on: 786-0 renal
[44] = tested on: NCI-H23 lung
[45] = tested on: A549 NSCLC
[46] = tested on: SNB-19 CNS
[47] = tested on: MOLT-4 leukemia
[48] = tested on: SF-268 CNS
[49] = tested on: SK-OV-3 ovarian
[50] = tested on: UACC-62 melanoma
[51] = tested on: U251 CNS
[52] = tested on: UACC-257 melanoma
[53] = tested on: OVCAR-3 ovarian
[54] = tested on: CCRF-CEM leukemia
[55] = tested on: LOX IMVI melanoma
[56] = tested on: HCT-15 colon
[57] = tested on: SK-MEL-2 melanoma
[58] = tested on: NCI/ADR-RES ovarian
[59] = tested on: RPMI-8226 leukemia

CCCN1CCC(=O)N(CCC(F)(F)C(F)(F)C(F)(F)C(F)(F)C(F)(F)C(F)(F)F)C1=S
TGI [1]: > 100 µM | TGI [2]: > 100 µM | TGI [3]: > 100 µM | TGI [4]: > 100 µM | TGI [5]: > 100 µM | TGI [6]: > 100 µM | TGI [7]: > 100 µM | TGI [8]: > 100 µM | TGI [9]: > 100 µM | TGI [10]: > 100 µM | TGI [11]: > 100 µM | TGI [12]: > 100 µM | TGI [13]: > 100 µM | TGI [14]: > 100 µM | TGI [15]: > 100 µM | TGI [16]: > 100 µM | TGI [17]: > 100 µM | TGI [18]: > 100 µM | TGI [19]: > 100 µM | TGI [20]: > 100 µM | TGI [21]: > 100 µM | TGI [22]: > 100 µM | TGI [23]: > 100 µM | TGI [24]: > 100 µM | TGI [25]: > 100 µM | TGI [26]: > 100 µM | TGI [27]: > 100 µM | TGI [28]: > 100 µM | TGI [29]: > 100 µM | TGI [30]: > 100 µM | TGI [31]: > 100 µM | TGI [32]: > 100 µM | TGI [33]: > 100 µM | TGI [34]: > 100 µM | TGI [35]: > 100 µM | TGI [36]: > 100 µM | TGI [37]: > 100 µM | TGI [38]: > 100 µM | TGI [39]: > 100 µM | TGI [40]: > 100 µM | TGI [41]: > 100 µM | TGI [42]: > 100 µM | TGI [43]: > 100 µM | TGI [44]: > 100 µM | TGI [45]: > 100 µM | TGI [46]: > 100 µM | TGI [47]: > 100 µM | TGI [48]: > 100 µM | TGI [49]: > 100 µM | TGI [50]: > 100 µM | TGI [51]: > 100 µM | TGI [52]: > 100 µM | TGI [53]: > 100 µM | TGI [54]: > 100 µM

COc1cc(/C=C2\C(=O)N(c3ccccc3)C(c3ccccc3)S2(=O)=O)cc(OC)c1OC (centres undefined)
TGI [1]: > 100 µM | TGI [2]: > 100 µM | TGI [4]: > 100 µM | TGI [5]: > 100 µM | TGI [55]: > 100 µM | TGI [6]: > 100 µM | TGI [7]: > 100 µM | TGI [9]: > 100 µM | TGI [10]: 92.2 µM | TGI [11]: > 100 µM | TGI [12]: > 100 µM | TGI [56]: > 100 µM | TGI [13]: 48.3 µM | TGI [14]: > 100 µM | TGI [15]: > 100 µM | TGI [16]: > 100 µM | TGI [17]: > 100 µM | TGI [18]: 94.1 µM | TGI [19]: > 100 µM | TGI [20]: > 100 µM | TGI [21]: > 100 µM | TGI [22]: > 100 µM | TGI [23]: > 100 µM | TGI [24]: > 100 µM | TGI [25]: > 100 µM | TGI [26]: > 100 µM | TGI [57]: > 100 µM | TGI [27]: > 100 µM | TGI [58]: > 100 µM | TGI [28]: > 100 µM | TGI [29]: > 100 µM | TGI [30]: > 100 µM | TGI [31]: > 100 µM | TGI [32]: > 100 µM | TGI [33]: > 100 µM | TGI [34]: > 100 µM | TGI [35]: > 100 µM | TGI [37]: > 100 µM | TGI [38]: > 100 µM | TGI [39]: > 100 µM | TGI [40]: > 100 µM | TGI [41]: > 100 µM | TGI [42]: > 100 µM | TGI [43]: > 100 µM | TGI [44]: > 100 µM | TGI [45]: > 100 µM | TGI [46]: > 100 µM | TGI [47]: > 100 µM | TGI [48]: > 100 µM | TGI [49]: > 100 µM | TGI [59]: 92.3 µM | TGI [50]: > 100 µM | TGI [51]: > 100 µM | TGI [52]: > 100 µM | TGI [53]: > 100 µM | TGI [54]: 56.8 µM

O=C(NCCCNCCCNC(=O)c1cc(-c2ccccc2)nc2ccccc12)c1cc(-c2ccccc2)nc2ccccc12
TGI [2]: 3.53 µM | TGI [3]: 3.19 µM | TGI [4]: 4.17 µM | TGI [5]: > 100 µM | TGI [7]: 3.14 µM | TGI [8]: 2.99 µM | TGI [11]: 3.09 µM | TGI [12]: 3.5 µM | TGI [56]: > 100 µM | TGI [13]: 3.13 µM | TGI [14]: 3.7 µM | TGI [17]: 2.16 µM | TGI [19]: > 100 µM | TGI [20]: 3.22 µM | TGI [24]: > 23.7 µM | TGI [25]: 3.38 µM | TGI [57]: 3.55 µM | TGI [27]: 3.16 µM | TGI [58]: 4.13 µM | TGI [29]: 3.19 µM | TGI [30]: 3.32 µM | TGI [31]: 3.32 µM | TGI [33]: 3.08 µM | TGI [36]: 2.96 µM | TGI [38]: 3.53 µM | TGI [40]: 3.2 µM | TGI [42]: 3.45 µM | TGI [45]: 3.34 µM | TGI [49]: 4.95 µM | TGI [59]: 4.78 µM | TGI [52]: 3.73 µM | TGI [53]: 3.23 µM

COc1ccc(C2OC[C@H]3O[C@@H](OCc4ccccc4)[C@H](O)[C@@H](O)[C@@H]3O2)cc1 (some centres undefined)
TGI [1]: > 100 µM | TGI [2]: > 100 µM | TGI [3]: > 100 µM | TGI [4]: > 100 µM | TGI [5]: > 100 µM | TGI [55]: > 100 µM | TGI [6]: > 100 µM | TGI [7]: > 100 µM | TGI [8]: > 100 µM | TGI [9]: > 100 µM | TGI [10]: > 100 µM | TGI [11]: > 100 µM | TGI [56]: > 100 µM | TGI [13]: > 100 µM | TGI [14]: > 100 µM | TGI [15]: > 100 µM | TGI [16]: > 100 µM | TGI [17]: > 100 µM | TGI [18]: > 100 µM | TGI [19]: > 100 µM | TGI [20]: > 100 µM | TGI [21]: > 100 µM | TGI [22]: > 100 µM | TGI [24]: > 100 µM | TGI [25]: > 100 µM | TGI [26]: > 100 µM | TGI [57]: > 100 µM | TGI [58]: > 100 µM | TGI [30]: > 100 µM | TGI [31]: > 100 µM | TGI [32]: > 100 µM | TGI [33]: > 100 µM | TGI [34]: > 100 µM | TGI [35]: > 100 µM | TGI [36]: > 100 µM | TGI [38]: > 100 µM | TGI [39]: > 100 µM | TGI [40]: > 100 µM | TGI [41]: > 100 µM | TGI [42]: > 100 µM | TGI [44]: > 100 µM | TGI [45]: > 100 µM | TGI [46]: > 100 µM | TGI [47]: > 100 µM | TGI [48]: > 100 µM | TGI [49]: > 100 µM | TGI [59]: > 100 µM | TGI [50]: > 100 µM | TGI [51]: > 100 µM | TGI [52]: > 100 µM | TGI [53]: > 100 µM | TGI [54]: > 100 µM
